Reference: patent publication US10676442B2, “Salt derivative of tetrahydroisoquinoline and crystalline thereof and preparation method therefore and application thereof” (CHINA STATE INSTITUTE OF PHARMACEUTICAL INDUSTRY, priority 2016, dated 2020)
Converted amounts (≈) assume the structure as drawn. “And” between values parts separate entries of the source, which are not always exact repeats. Equal values may be shown once. “Also recorded” adds a separate entry of the source. Where a name gives a salt, the structure may show the parent alone. Read-outs that look alike come from different tables or passages of the source.

What was measured:
[1] = Temperature stability investigation (60° C. oven, XRPD); format: physicochemical; details: oven at 60° C., XRPD on day 0, 5, 10, 20 and 30
Experimental: Phosphate, nicotinate, glycolate, oxalate, orotate, benzenesulfonate and sulfate of SIPI-409 were placed in an oven at 60° C. XRPD measurements were carried out on samples taken out on day 0, 5, 10, 20 and 30.

[2] = Hygroscopicity investigation (dynamic vapor sorption); format: physicochemical; details: dynamic vapor sorption analyzer
Excerpt: Hygroscopicity was further investigated by placing the phosphate, nicotinate, glycolate, oxalate, orotate, benzenesulfonate and sulfate of SIPI-409 in a dynamic vapor sorption (DVS) analyzer.

[3] = Pharmacokinetic study, single oral dose in SD rats (LC-MS/MS of plasma); format: in vivo
Experimental: SIPI-409 hydrochloride and SIPI-409 phosphate were administrated peros (PO), and were studied on in vivo pharmacokinetic parameters and bioavailability in SD rats. Concentrations of SIPI-409 hydrochloride and SIPI-409 phosphate in plasma were measured at intervals using Liquid Chromatography-Mass Spectrometry-Mass Spectrometry assay.
The obtained plasma concentration data were processed using the pharmacokinetic processing software WinNonlin 5.2 to calculate the relevant pharmacokinetic parameters according to non-compartmental model.

[4] = Pharmacokinetics after intravenous administration in SD rats; format: in vivo; details: α-crystalline form, compared with SIPI-409 hydrochloride
[5] = Humidity stability investigation (92.5% RH, XRPD); format: physicochemical; details: 92.5% RH (saturated KNO3), XRPD on day 0, 5, 10, 20 and 30
Experimental: The phosphate, nicotinate, glycolate, oxalate, orotate, benzenesulfonate and sulfate of SIPI-409 were kept in a 92.5% RH (saturated KNO3) atomosphere. XRPD measurements were carried out on samples taken out on day 0, 5, 10, 20 and 30.

[6] = Measurement of solubility in water by liquid chromatography; format: physicochemical; details: for Solubility in water / solubility at 12 h: saturated solution shaken 12 hrs at 30° C., HPLC, in water; for Solubility in water compared to SIPI-409 and SIPI-409 hydrochloride: in words; for solubility at 12 h: thermodynamic from solid
Experimental: Solubility of SIPI-409 and of the salt derivatives thereof in water was measured by liquid chromatography.
Main steps: preparing SIPI-409 standards at the concentrations of 5 ? g/mL, 10 ? g/mL, 50 ? g/mL, 100 ? g/mL, 200 ? g/mL and establishing the standard curve of these preparations.
Chromatography Conditions:
Chromatography column: Phenomenex Luna 5u C18(2) 100 A 4.6×200 mm
Detection wave-length: 210 nm
Mobile phase: acetonitrile/phosphate buffer (0.68 g/L monopotassium phosphate, pH was adjusted to 3.0 using triethylamine)=68/32
Column temperature: 30° C.
Load volume: 10 ? L
Residence time: around 6.3 min
Sample treatment: the test samples were prepared into saturated solutions in water (suspensions) and shaken for 12 hrs at 30° C., which were further ultrasonicated for 30 s, followed by filtration and preparation of serial dilutions as appropriate, which were then analyzed by HPLC.

[7] = Light stability investigation (light incubator, XRPD); format: physicochemical
Experimental: The phosphate, nicotinate, glycolate, oxalate, orotate, benzenesulfonate and sulfate of SIPI-409 were placed in a light incubator. XRPD measurements were carried out on samples taken out on day 0, 5, 10, 20 and 30.

[8] = Preliminary pharmacokinetic studies (background); format: in vivo, SD rats; details: for bioavailability: rat, plasma, oral administration, SD rats
Excerpt: This can be explained by the excessively low solubility of the salt.

[9] = PO 10 mg/kg (based on SIPI-409), single dose, 10 mg/kg
[10] = XRPD on day 0, 5, 10, 20 and 30

SMILES	Solubility in water [6] [mg/mL]	Solubility in water compared to SIPI-409 and SIPI-409 hydrochloride [6]	Stability 60° C. [1]	DVS Max Hygroscopicity [2] [%]	Stability 92.5% RH [5]	Stability Light [7, 10]	further results
COc1cc2c(cc1OCc1ccccc1)C(Cc1cccc(NS(C)(=O)=O)c1)NCC2 (stereo not shown) [SIPI-409 Phosphate, 1-(3-methanesulfonamidobenzyl)-6-methoxy,7-benzyloxy-1,2,3,4-tetrahydroisoquinoline]	9.69	significantly increased solubility in water	–	–	–	–	Stability 60° C. ([1]; listed as SIPI-409 phosphate): satisfactory stabilities; Stability 60° C. ([1]; listed as phosphate): Stable; DVS Max Hygroscopicity ([2]; listed as SIPI-409 phosphate): 0.7%; DVS Max Hygroscopicity ([2]; listed as phosphate): 0.7%; AUC(0-t) [3, 9]: 1366.89 µg·h/L; AUC(0-∞) [3, 9]: 1437.93 µg·h/L; F (bioavailability) [3, 9]: 79% and 79.33%; half-life ([3]; SD, rat, plasma, po, 10 mg/kg, PO 10 mg/kg (based on SIPI-409), single dose): 160 min; Cmax ([3]; SD, rat, plasma, po, 10 mg/kg, PO 10 mg/kg (based on SIPI-409), single dose, read-out: Cmax): 376 ng/mL; MRT inf ([3]; SD, rat, plasma, po, 10 mg/kg, PO 10 mg/kg (based on SIPI-409), single dose, read-out: MRT(0-∞)): 4.23 h; Increase of bioavailability compared to SIPI-409 hydrochloride ([3]; oral administration): 329%; Tmax ([3]; rat, plasma, PO 10 mg/kg (based on SIPI-409), single dose, read-out: Tmax): 19.8 min; Pharmacokinetic parameters after intravenous administration [4]: substantially comparable to SIPI-409 hydrochloride; Stability 92.5% RH ([5]; listed as SIPI-409 phosphate): satisfactory stabilities; Stability 92.5% RH ([5]; listed as phosphate): Stable; Stability Light ([7]; XRPD on day 0, 5, 10, 20 and 30, listed as SIPI-409 phosphate): satisfactory stabilities; Stability Light ([7]; XRPD on day 0, 5, 10, 20 and 30, listed as phosphate): Stable
COc1cc2c(cc1OCc1ccccc1)C(Cc1cccc(NS(C)(=O)=O)c1)NCC2 (stereo not shown) [SIPI-409 Hydrochloride, 1-(3-methanesulfonamidobenzyl)-6-methoxy,7-benzyloxy-1,2,3,4-tetrahydroisoquinoline, reference compound]	0.51	–	–	–	–	–	Tmax ([3]; PO 10 mg/kg (based on SIPI-409), single dose): 19.8 min; AUC(0-t) [3, 9]: 482.88 µg·h/L; AUC(0-∞) [3, 9]: 503.82 µg·h/L; Cmax [3, 9]: 191.96 ng/mL; F (bioavailability) [3, 9]: 24.63%; t1/2 [3, 9]: 1.8 h; t1/2 of injection ([8]; injection, compared with Sotalol): close to that of Sotalol; bioavailability [8]: 24%
CC(C)NCC(O)c1ccc(NS(C)(=O)=O)cc1 (stereo not shown) [Sotalol]	–	–	–	–	–	–	bioavailability [8]: 70%
COc1cc2c(cc1OCc1ccccc1)C(Cc1cccc(NS(C)(=O)=O)c1)NCC2 (stereo not shown) [SIPI-409 Oxalate, 1-(3-methanesulfonamidobenzyl)-6-methoxy,7-benzyloxy-1,2,3,4-tetrahydroisoquinoline]	3.52	significantly increased solubility in water	Stable	9.5	Hygroscopic	Stable	–
COc1cc2c(cc1OCc1ccccc1)C(Cc1cccc(NS(C)(=O)=O)c1)NCC2 (stereo not shown) [SIPI-409 Benzenesulfonate, 1-(3-methanesulfonamidobenzyl)-6-methoxy,7-benzyloxy-1,2,3,4-tetrahydroisoquinoline]	–	–	Stable	4.5	Hygroscopic	Stable	solubility at 12 h ([6]; read-out: Solubility): 3210 µM; solubility at 12 h ([6]; read-out: Solubility in water): 1960 µg/mL
COc1cc2c(cc1OCc1ccccc1)C(Cc1cccc(NS(C)(=O)=O)c1)NCC2 (stereo not shown) [SIPI-409 Orotate, 1-(3-methanesulfonamidobenzyl)-6-methoxy,7-benzyloxy-1,2,3,4-tetrahydroisoquinoline]	1.93 (≈ 4260 µM)	significantly increased solubility in water	Stable	1.1	Stable	Stable	–
COc1cc2c(cc1OCc1ccccc1)C(Cc1cccc(NS(C)(=O)=O)c1)NCC2 (stereo not shown) [SIPI-409 Sulfate, 1-(3-methanesulfonamidobenzyl)-6-methoxy,7-benzyloxy-1,2,3,4-tetrahydroisoquinoline]	5.76	significantly increased solubility in water	Stable	5.2	Hygroscopic	Stable	–
COc1cc2c(cc1OCc1ccccc1)C(Cc1cccc(NS(C)(=O)=O)c1)NCC2 (racemic) [SIPI-409 Malate, 1-(3-methanesulfonamidobenzyl)-6-methoxy,7-benzyloxy-1,2,3,4-tetrahydroisoquinoline]	–	–	–	–	–	–	solubility at 12 h ([6]; water, 30 °C, water, read-out: Solubility): 650 µM; solubility at 12 h ([6]; water, 30 °C, water, read-out: Solubility in water): 380 µg/mL
COc1cc2c(cc1OCc1ccccc1)C(Cc1cccc(NS(C)(=O)=O)c1)NCC2 (stereo not shown) [SIPI-409 Succinate, 1-(3-methanesulfonamidobenzyl)-6-methoxy,7-benzyloxy-1,2,3,4-tetrahydroisoquinoline]	0.16	–	–	–	–	–	–
COc1cc2c(cc1OCc1ccccc1)C(Cc1cccc(NS(C)(=O)=O)c1)NCC2 (stereo not shown) [SIPI-409 Hydrobromate, 1-(3-methanesulfonamidobenzyl)-6-methoxy,7-benzyloxy-1,2,3,4-tetrahydroisoquinoline]	0.44 (≈ 972 µM)	–	–	–	–	–	–
COc1cc2c(cc1OCc1ccccc1)C(Cc1cccc(NS(C)(=O)=O)c1)NCC2 (stereo not shown) [SIPI-409 Tartarate, 1-(3-methanesulfonamidobenzyl)-6-methoxy,7-benzyloxy-1,2,3,4-tetrahydroisoquinoline]	0.22 (≈ 486 µM)	–	–	–	–	–	–
COc1cc2c(cc1OCc1ccccc1)C(Cc1cccc(NS(C)(=O)=O)c1)NCC2 (stereo not shown) [SIPI-409 Glycolate, 1-(3-methanesulfonamidobenzyl)-6-methoxy,7-benzyloxy-1,2,3,4-tetrahydroisoquinoline]	3.21 (≈ 7090 µM)	significantly increased solubility in water	Stable	0.8	Stable	Stable	–
COc1cc2c(cc1OCc1ccccc1)C(Cc1cccc(NS(C)(=O)=O)c1)NCC2 (stereo not shown) [SIPI-409 Fumarate, 1-(3-methanesulfonamidobenzyl)-6-methoxy,7-benzyloxy-1,2,3,4-tetrahydroisoquinoline]	0.12	–	–	–	–	–	–
COc1cc2c(cc1OCc1ccccc1)C(Cc1cccc(NS(C)(=O)=O)c1)NCC2 (stereo not shown) [SIPI-409, 1-(3-methanesulfonamidobenzyl)-6-methoxy,7-benzyloxy-1,2,3,4-tetrahydroisoquinoline, reference compound]	0.07 (≈ 155 µM)	–	–	–	–	–	–
COc1cc2c(cc1OCc1ccccc1)C(Cc1cccc(NS(C)(=O)=O)c1)NCC2 (stereo not shown) [SIPI-409 Ethionate, 1-(3-methanesulfonamidobenzyl)-6-methoxy,7-benzyloxy-1,2,3,4-tetrahydroisoquinoline]	0.44 (≈ 972 µM)	–	–	–	–	–	–
COc1cc2c(cc1OCc1ccccc1)C(Cc1cccc(NS(C)(=O)=O)c1)NCC2 (stereo not shown) [SIPI-409 Nicotinate, 1-(3-methanesulfonamidobenzyl)-6-methoxy,7-benzyloxy-1,2,3,4-tetrahydroisoquinoline]	4.26 (≈ 9410 µM)	significantly increased solubility in water	less stable against heat and degraded since day 5; also recorded: Instable	4.5	Hygroscopic	Stable	–
